Results taken from ChEMBL document CHEMBL4828731, “Synthesis, structure-activity relationships and molecular docking studies of phenyldiazenyl sulfonamides as aromatase inhibitors” (Eur J Med Chem, 2021).
Calls of active or inactive are those of the source. The rule behind the calls is not given here.

Key:
Aromatase [1] = biological target: T1, Aromatase (Homo sapiens, UniProt P11511); assay: Inhibition of human aromatase assessed as reduction in fluorescence intensity using 7-methoxy-4-trifluoromethyl coumarin as a substrate at 1 uM by fluorimetric assay relative to control
T1 sequence (P11511 whole entry): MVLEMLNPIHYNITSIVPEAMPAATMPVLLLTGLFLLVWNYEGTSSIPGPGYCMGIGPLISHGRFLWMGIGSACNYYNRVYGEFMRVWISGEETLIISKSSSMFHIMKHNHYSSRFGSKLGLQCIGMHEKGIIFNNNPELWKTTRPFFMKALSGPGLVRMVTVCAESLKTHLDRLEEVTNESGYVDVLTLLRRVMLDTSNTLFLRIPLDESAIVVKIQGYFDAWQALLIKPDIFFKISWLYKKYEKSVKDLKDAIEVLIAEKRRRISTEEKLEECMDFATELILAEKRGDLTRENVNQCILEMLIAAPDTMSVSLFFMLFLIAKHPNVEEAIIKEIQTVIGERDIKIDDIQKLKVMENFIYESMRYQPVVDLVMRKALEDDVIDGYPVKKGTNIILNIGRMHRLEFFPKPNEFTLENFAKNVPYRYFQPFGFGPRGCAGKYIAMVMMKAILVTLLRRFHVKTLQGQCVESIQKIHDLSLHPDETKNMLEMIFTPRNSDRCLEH

HFF-1 [2] = assay: Cytotoxicity against human HFF-1 clls assessed as reduction in cell viability at 10 to 100 uM measured after 72 hrs by MTT assay; type: cell-based; conditions: hff-1, 72 h, dose 10-100 µM
MCF7 [3] = assay: Cytotoxicity against human MCF7 cells assessed as reduction in cell metabolic activity up to 50 uM incubated for 48 hrs by MTT assay relative to control; type: functional; parameters: scale not given: the % may be the effect or the level left; conditions: dose microM <=50
MCF7 [4] = assay: Cytotoxicity against human MCF7 cells assessed as release of LDH up to 250 uM measured after 24 hrs by lactate dehydrogenase assay; type: functional, cell-based; conditions: dose microM <=250, time 24.0 hrs
Aromatase [5] = biological target: T1, Aromatase; assay: Inhibition of human aromatase assessed as reduction in fluorescence intensity using 7-methoxy-4-trifluoromethyl coumarin as a substrate by fluorimetric assay
MCF7 [6] = assay: Cytotoxicity against human MCF7 cells assessed as reduction in cell metabolic activity incubated for 72 hrs by MTT assay; type: functional, cell-based
MCF7 [7] = assay: Cytotoxicity against human MCF7 cells assessed as reduction in cell metabolic activity up to 50 uM incubated for 24 hrs by MTT assay relative to control; type: functional; parameters: scale not given: the % may be the effect or the level left; conditions: dose microM <=50
[8] = Selectivity index, ratio of IC50 for cytotoxicity against human HFF-1 cells to IC50 for cytotoxicity against human MCF7 cells measured after 24 hrs by MTT assay; type: toxicity, cell-based; conditions: HFF-1 cells and MCF7 cells, read-out: Selectivity Index
MCF7 [9] = assay: Cytotoxicity against human MCF7 cells assessed as reduction in cell metabolic activity at 100 uM incubated for 24 hrs by MTT assay relative to control; type: functional; parameters: scale not given: the % may be the effect or the level left
MCF7 [10] = assay: Cytotoxicity against human MCF7 cells assessed as reduction in cell metabolic activity at 250 uM incubated for 72 hrs by MTT assay relative to control; type: functional; parameters: scale not given: the % may be the effect or the level left
Aromatase [11] = biological target: T1, Aromatase; assay: Potency index, ratio of resveratrol IC50 to test compound IC50 for Inhibition of human aromatase assessed as reduction in fluorescence intensity using 7-methoxy-4-trifluoromethyl coumarin as a substrate by fluorimetric assay
Aromatase [12] = biological target: T1, Aromatase; assay: Inhibition of human aromatase in T47D measured after 24 hrs by ELISA
[13] = Selectivity index, ratio of IC50 for cytotoxicity against human HFF-1 cells to IC50 for cytotoxicity against human MCF7 cells measured after 48 hrs by MTT assay; type: toxicity, cell-based; conditions: HFF-1 cells and MCF7 cells, read-out: Selectivity Index
[14] = Selectivity index, ratio of IC50 for cytotoxicity against human HFF-1 cells to IC50 for cytotoxicity against human MCF7 cells measured after 72 hrs by MTT assay; type: toxicity, cell-based; conditions: HFF-1 cells and MCF7 cells, read-out: Selectivity Index
MCF7 [15] = assay: Induction of apoptosis in human MCF7 cells assessed as increase in necrotic cells at 10 to 250 uM measured after 24 hrs by Annexin V-APC/PI staining based flow cytometry analysis relative to control; type: functional, cell-based; conditions: dose 10-250 µM
MCF7 [16] = assay: Cell cycle arrest in human MCF7 cells assessed as reduction in cells in S phase measured after 72 hrs by propidium iodide staining based flow cytometry analysis; type: functional
MCF7 [17] = assay: Cytotoxicity against human MCF7 cells assessed as fold increase in release of LDH at 50 uM measured after 24 hrs by lactate dehydrogenase assay relative to control; type: functional
HFF-1 [18] = assay: Cytotoxicity against human HFF-1 clls assessed as reduction in cell viability at 250 uM measured after 72 hrs by MTT assay; type: cell-based; conditions: hff-1, 72 h
MCF7 [19] = assay: Cell cycle arrest in human MCF7 cells assessed as increase in cells in G1 phase measured after 72 hrs by propidium iodide staining based flow cytometry analysis; type: functional
MCF7 [20] = assay: Induction of apoptosis in human MCF7 cells assessed as cells in apoptotic stage at 250 uM measured after 24 hrs by Annexin V-APC/PI staining based flow cytometry analysis (Rvb= 7.3%); type: functional
MCF7 [21] = assay: Induction of apoptosis in human MCF7 cells assessed as cells in apoptotic stage at 100 uM measured after 24 hrs by Annexin V-APC/PI staining based flow cytometry analysis (Rvb= 7.3%); type: functional

O=S(=O)(Cc1ccccc1)Nc1ccc(/N=N/c2ccccc2)cc1
inhibition at 1 µM (Aromatase [1]): < 20%

O=S(=O)(Nc1ccc(/N=N/c2ccccc2)cc1)c1ccccc1
inhibition at 1 µM (Aromatase [1]): < 20%

CCS(=O)(=O)Nc1ccc(/N=N/c2ccccc2)cc1
inhibition at 1 µM (Aromatase [1]): < 20%

CS(=O)(=O)Nc1ccc(/N=N/c2ccccc2)cc1
inhibition at 1 µM (Aromatase [1]): < 20%

N#Cc1ccc(S(=O)(=O)Nc2ccc(/N=N/c3ccccc3)cc2)c(Cl)c1
inhibition at 1 µM (Aromatase [1]): < 20%

Cc1ccc(S(=O)(=O)N(Cc2nc3ccccc3[nH]2)c2ccc(/N=N/c3ccccc3)cc2)cc1[N+](=O)[O-]
inhibition at 1 µM (Aromatase [1]): < 20%

N#Cc1ccc(S(=O)(=O)Nc2ccc(/N=N/c3ccccc3)cc2)cc1
Activity (HFF-1 [2]): Non-Toxic | Activity (MCF7 [3]): 60% | Activity (MCF7 [4]): inactive | IC50 (Aromatase [5]): 7.9 µM | Activity (MCF7 [6]): Dose-Dependent Effect | Activity (MCF7 [7]): 20% | selectivity ratio at 24 h [8]: > 1.6

O=[N+]([O-])c1cccc(S(=O)(=O)Nc2ccc(/N=N/c3ccccc3)cc2)c1
inhibition at 1 µM (Aromatase [1]): < 20%

Oc1ccc(/C=C/c2cc(O)cc(O)c2)cc1 [RESVERATROL]
Activity (MCF7 [9]): 78.2% | Activity (MCF7 [4]): inactive | Activity (MCF7 [6]): Dose-Dependent Effect

COc1ccc(S(=O)(=O)N(Cc2nc3ccccc3[nH]2)c2ccc(/N=N/c3ccccc3)cc2)c(OC)c1
Activity (HFF-1 [2]): Non-Toxic | Activity (MCF7 [10]): 134.2% | Activity (MCF7 [3]): 60% | Activity (MCF7 [4]): inactive | inhibition at 1 µM (Aromatase [1]): 50% | Ratio IC50 (Aromatase [11]): 14 | IC50 (Aromatase [5]): 5.7 µM | Activity (MCF7 [7]): 20% | selectivity ratio at 24 h [8]: > 2.25

Cc1ccc(S(=O)(=O)Nc2ccc(/N=N/c3ccccc3)cc2)cc1[N+](=O)[O-]
inhibition at 1 µM (Aromatase [1]): < 20%

O=S(=O)(c1ccccc1)N(Cc1nc2ccccc2[nH]1)c1ccc(/N=N/c2ccccc2)cc1
inhibition at 1 µM (Aromatase [1]): < 20%

O=S(=O)(Nc1ccc(/N=N/c2ccccc2)cc1)c1ccc(Cl)s1
inhibition at 1 µM (Aromatase [1]): < 20%

CC(=O)Nc1ccc(S(=O)(=O)Nc2ccc(/N=N/c3ccccc3)cc2)cc1
inhibition at 1 µM (Aromatase [1]): < 20%

COc1cnc(NS(=O)(=O)c2ccc(N/C=C\C(=O)c3cc4ccccc4oc3=O)cc2)nc1
IC50 (Aromatase [12]): 6 µM

COc1ccc(S(=O)(=O)Nc2ccc(/N=N/c3ccccc3)cc2)c(OC)c1
Activity (MCF7 [9]): 47.4% | Activity (HFF-1 [2]): Non-Toxic | selectivity ratio at 48 h [13]: 3.19 | selectivity ratio at 72 h [14]: 3.74 | Activity (MCF7 [3]): 60% | Activity (MCF7 [15]): Active | Ratio IC50 (Aromatase [11]): 50 | IC50 (Aromatase [5]): 1.6 µM | Activity (MCF7 [16]): Dose-Dependent Effect | Activity (MCF7 [6]): Dose-Dependent Effect | fold change (FC) (MCF7 [17]): 2.5 | Activity (HFF-1 [18]): Toxic | Activity (MCF7 [19]): Dose-Dependent Effect | Activity (MCF7 [20]): 14.7% | Activity (MCF7 [7]): 20% | selectivity ratio at 24 h [8]: 2.12 | Activity (MCF7 [21]): 19.7%
